Measurements reported in publication PMC8615997, “The Pseudo-Symmetric N-benzyl Hydroxyethylamine Core in a New Series of Heteroarylcarboxyamide HIV-1 Pr Inhibitors: Synthesis, Molecular Modeling and Biological Evaluation” (Biomolecules, 2021).

Biological target: T1, recombinant wild-type HIV-1 PR (Human immunodeficiency virus type 1 group M subtype B, UniProt P04585)
T1 construct: recombinant wild-type HIV-1 PR from Bachem; purchased Bachem
Test: In vitro fluorometric HIV-1 protease inhibition assay (fluorogenic substrate Abz-Thr-Ile-Nle-Phe(p-NO2)-Gln-Arg-NH2, pH 5.5)
Format: biochemical
Conditions: for remaining activity at 0.0005 µM: read-out: residual activity at the 0.5 nM inhibitor
Method: IC50 values were determined at pH 5.5 using recombinant wild-type HIV-1 PR from Bachem and the fluorogenic substrate Abz-Thr-Ile-Nle-Phe(p-NO2)-Gln-Arg-NH2 (Abz-NF⁄-6; Bachem AG, Bubendorf, CH). […] The assay was performed as follows: Dilution Buffer: 100 mM MES buffer, pH 5.5, containing 400 mM NaCl, 1 mM EDTA, 1 mM DTT and 1 mg/mL BSA. Solution A: 10 μL of a substrate stock solution in DMSO (10 mg/ml, 10.6 mM) were diluted in 1.99 ml of dilution buffer to a final concentration of […]. Solution B: 10 μL of a protease stock solution (0.4 mg/mL) in 10 mM sodium phosphate buffer, pH 6.5, containing 1 mM EDTA, 10% glycerol, 0.05% mercaptoethanol, 50 mM NaCl, were diluted 100 times with the dilution buffer, pH 5.5, to a final concentration of 0.004 mg/ml.
Assay: 114 μL of solution A, 11 μL of solution B and 75 μL of the dilution buffer were pre-incubated in a cuvette at 25 °C, and the fluorescence was recorded at 325 nm excitation and 420 nm emission for 10 min. A total of 2 μL of the inhibitor in DMSO was then added, and the fluorescence was recorded for a further 10 min. […] IC50 was obtained by measuring the relative residual enzyme activity (ratio of the increase of fluorescence velocities before and after the addition of inhibitor) and by fitting the residual activity vs. inhibitor concentration semilog plots to a tetraparametric logistic function (Sigma plot 2001, SPSS Inc., Chicago, IL, USA). All the measures were triplicated.
IC50 values were obtained on recombinant wild-type HIV protease by measuring the initial rates of hydrolysis of the fluorogenic substrate Abz-Thr-Ile-Nle-Phe(NO2)-Gln-Arg (Table 1). The initial rates of the enzyme-catalyzed reactions were measured at different inhibitors concentrations, while the reference rates for the not-inhibited reactions were measured each time before the addition of the inhibitors. IC50 was obtained by measuring the relative residual enzyme activity (ratio of the increase of fluorescence velocities before and after the addition of inhibitor) and by fitting the residual activity vs. inhibitor concentration semilog plots to a tetraparametric logistic function.

## O=C(N[C@@H](Cc1ccccc1)[C@H](O)CN(Cc1ccccc1)S(=O)(=O)c1ccc([N+](=O)[O-])cc1)c1ccc2occc2c1 [Compound 8a, N-((2S,3R)-3-hydroxy-4-(N-benzyl-4-nitrophenylsulfonamido)-1-phenylbutan-2-yl)benzofuran-5-carboxamide]
  IC50: 47 nM

## O=C(N[C@@H](Cc1ccccc1)[C@H](O)CN(Cc1ccccc1)S(=O)(=O)c1ccc([N+](=O)[O-])cc1)c1ccc2sccc2c1 [Compound 7a, N-((2S,3R)-3-hydroxy-4-(N-benzyl-4-nitrophenylsulfonamido)-1-phenylbutan-2-yl)benzo[b]thiophene-5-carboxamide]
  IC50: 4.2 nM

## O=C(N[C@@H](Cc1ccccc1)[C@H](O)CN(Cc1ccccc1)S(=O)(=O)c1ccc([N+](=O)[O-])cc1)c1ccc2[nH]ccc2c1 [Compound 9a, N-((2S,3R)-3-hydroxy-4-(N-benzyl-4-nitrophenylsulfonamido)-1-phenylbutan-2-yl)1H-indol-5-carboxamide]
  remaining activity at 0.0005 µM: 27.7%

## COc1ccc(S(=O)(=O)N(Cc2ccccc2)C[C@@H](O)[C@H](Cc2ccccc2)NC(=O)c2ccc3occc3c2)cc1OC [Compound 8c, N-((2S,3R)-3-hydroxy-4-(N-benzyl-3,4-dimethoxyphenylsulfonamido)-1-phenylbutan-2-yl)benzofuran-5-carboxamide]
  IC50: 82 nM

## COc1ccc(S(=O)(=O)N(Cc2ccccc2)C[C@@H](O)[C@H](Cc2ccccc2)NC(=O)c2ccc3sccc3c2)cc1OC [Compound 7c, N-((2S,3R)-3-hydroxy-4-(N-benzyl-3,4-dimethoxyphenylsulfonamido)-1-phenylbutan-2-yl)benzo[b]thiophene-5-carboxamide]
  IC50: 6.2 nM

## COc1ccc(S(=O)(=O)N(Cc2ccccc2)C[C@@H](O)[C@H](Cc2ccccc2)NC(=O)c2ccc3[nH]ccc3c2)cc1 [Compound 9b, N-((2S,3R)-3-hydroxy-4-(N-benzyl-4-methoxyphenylsulfonamido)-1-phenylbutan-2-yl)1H-indol-5-carboxamide]
  remaining activity at 0.0005 µM: 36.3%

## COc1ccc(S(=O)(=O)N(Cc2ccccc2)C[C@@H](O)[C@H](Cc2ccccc2)NC(=O)c2ccc3occc3c2)cc1 [Compound 8b, N-((2S,3R)-3-hydroxy-4-(N-benzyl-4-methoxyphenylsulfonamido)-1-phenylbutan-2-yl)benzofuran-5-carboxamide]
  IC50: 9.6 nM

## COc1ccc(S(=O)(=O)N(Cc2ccccc2)C[C@@H](O)[C@H](Cc2ccccc2)NC(=O)c2ccc3[nH]ccc3c2)cc1OC [Compound 9c, N-((2S,3R)-3-hydroxy-4-(N-benzyl-3,4-dimethoxyphenylsulfonamido)-1-phenylbutan-2-yl)1H-indol-5-carboxamide]
  remaining activity at 0.0005 µM: 10.2%

## COc1ccc(S(=O)(=O)N(Cc2ccccc2)C[C@@H](O)[C@H](Cc2ccccc2)NC(=O)c2ccc3sccc3c2)cc1 [Compound 7b, N-((2S,3R)-3-hydroxy-4-(N-benzyl-4-methoxyphenylsulfonamido)-1-phenylbutan-2-yl)benzo[b]thiophene-5-carboxamide]
  IC50: 2.3 nM
